Experimental data published in ChEMBL document CHEMBL4507291 (2021).

Assays:
[1] = target: Protein kinase C eta type (Homo sapiens) (UniProt P24723); test: PRKCH (PKC eta) Kinase screen; settings: Compound concentration 1.0 uM
[2] = target: Casein kinase I isoform gamma-1 (Homo sapiens) (UniProt Q9HCP0); test: CSNK1G1 (CK1 gamma 1) Kinase screen; settings: Compound concentration 1.0 uM
[3] = target: T1, Serine/threonine-protein kinase BRSK1 (Homo sapiens) (UniProt Q8TDC3); test: BRSK1 (SAD1) Kinase screen; settings: Compound concentration 1.0 uM
T1 sequence (whole entry): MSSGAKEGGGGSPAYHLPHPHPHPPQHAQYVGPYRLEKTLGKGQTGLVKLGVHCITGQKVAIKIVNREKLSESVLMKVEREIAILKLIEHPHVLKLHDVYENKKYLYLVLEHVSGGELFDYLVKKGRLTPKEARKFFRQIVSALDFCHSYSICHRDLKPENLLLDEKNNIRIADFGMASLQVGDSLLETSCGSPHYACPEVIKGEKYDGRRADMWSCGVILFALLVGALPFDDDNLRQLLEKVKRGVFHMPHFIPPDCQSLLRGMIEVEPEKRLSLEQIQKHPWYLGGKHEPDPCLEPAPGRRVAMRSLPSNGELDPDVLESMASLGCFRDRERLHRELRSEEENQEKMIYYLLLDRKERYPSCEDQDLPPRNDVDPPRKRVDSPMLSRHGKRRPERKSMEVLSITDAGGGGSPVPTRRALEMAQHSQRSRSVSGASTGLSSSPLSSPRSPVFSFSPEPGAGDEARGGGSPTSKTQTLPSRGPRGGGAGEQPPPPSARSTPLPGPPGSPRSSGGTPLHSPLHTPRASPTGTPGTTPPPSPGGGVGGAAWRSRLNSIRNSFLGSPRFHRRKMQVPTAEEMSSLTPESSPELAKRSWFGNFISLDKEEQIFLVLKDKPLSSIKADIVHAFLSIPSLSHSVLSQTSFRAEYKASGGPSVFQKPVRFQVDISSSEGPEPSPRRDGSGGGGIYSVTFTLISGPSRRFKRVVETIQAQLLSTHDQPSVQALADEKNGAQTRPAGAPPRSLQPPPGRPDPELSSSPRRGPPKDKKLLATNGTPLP

[4] = test system: Fibroblast growth factor receptor 3 (Homo sapiens), P22607 [K650E]; test: FGFR3 K650E Kinase screen; settings: Compound concentration 1.0 uM
Caspase-9 (Homo sapiens) = Caspase-9 (Homo sapiens) (UniProt P55211); test: Peptidase, CASP9 (Caspase 9) Eurofins-Panlabs enzyme assay; set-up: substrate with concentration; settings: Compound concentration 10.0 uM
[5] = target: 5-hydroxytryptamine receptor 2B (Homo sapiens, UniProt P41595)
5-hydroxytryptamine receptor 2B, sequence (P41595 whole entry): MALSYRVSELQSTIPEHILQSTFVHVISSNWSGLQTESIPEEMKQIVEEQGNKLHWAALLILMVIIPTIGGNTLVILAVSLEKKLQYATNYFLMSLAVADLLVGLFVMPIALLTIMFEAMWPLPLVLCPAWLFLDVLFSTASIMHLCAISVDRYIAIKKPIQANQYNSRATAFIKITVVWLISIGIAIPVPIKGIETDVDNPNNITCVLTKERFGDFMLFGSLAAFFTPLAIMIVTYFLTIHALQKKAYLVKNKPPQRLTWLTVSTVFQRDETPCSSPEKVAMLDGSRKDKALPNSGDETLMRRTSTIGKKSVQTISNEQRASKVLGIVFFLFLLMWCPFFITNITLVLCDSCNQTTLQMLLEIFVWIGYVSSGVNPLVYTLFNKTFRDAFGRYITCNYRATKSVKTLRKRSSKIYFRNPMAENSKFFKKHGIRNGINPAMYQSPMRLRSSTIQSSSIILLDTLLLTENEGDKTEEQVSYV

[6] = test system: Serine/threonine-protein kinase B-raf (Homo sapiens), P15056 [V600E]; test: BRAF V599E Kinase screen; settings: Compound concentration 1.0 uM
Serine/threonine-protein kinase B-raf (Homo sapiens), P15056 [V600E], sequence (P15056 whole entry V600E): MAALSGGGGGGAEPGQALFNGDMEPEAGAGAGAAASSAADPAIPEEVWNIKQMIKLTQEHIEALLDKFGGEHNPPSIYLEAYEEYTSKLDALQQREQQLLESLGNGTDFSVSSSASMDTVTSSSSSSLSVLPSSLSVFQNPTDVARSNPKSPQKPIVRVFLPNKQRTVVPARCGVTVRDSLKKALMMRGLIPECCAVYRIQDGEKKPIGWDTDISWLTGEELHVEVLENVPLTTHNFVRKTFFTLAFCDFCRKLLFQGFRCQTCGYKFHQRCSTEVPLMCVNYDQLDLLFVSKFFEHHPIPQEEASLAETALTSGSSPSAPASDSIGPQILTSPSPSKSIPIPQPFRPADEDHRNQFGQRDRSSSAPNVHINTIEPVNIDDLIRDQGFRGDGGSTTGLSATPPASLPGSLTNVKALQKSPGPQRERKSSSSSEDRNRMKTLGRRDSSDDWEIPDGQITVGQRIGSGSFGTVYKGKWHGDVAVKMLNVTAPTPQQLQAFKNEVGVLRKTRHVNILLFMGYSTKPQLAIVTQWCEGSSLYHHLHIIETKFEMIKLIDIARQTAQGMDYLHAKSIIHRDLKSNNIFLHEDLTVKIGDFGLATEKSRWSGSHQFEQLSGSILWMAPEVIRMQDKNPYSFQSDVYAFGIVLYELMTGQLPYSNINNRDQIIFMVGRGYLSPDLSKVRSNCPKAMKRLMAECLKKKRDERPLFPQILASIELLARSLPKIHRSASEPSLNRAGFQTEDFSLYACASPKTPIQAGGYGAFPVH

[7] = target: Angiopoietin-1 receptor (Homo sapiens) (UniProt Q02763); test: TEK (Tie2) Kinase screen; settings: Compound concentration 1.0 uM
Angiopoietin-1 receptor (Homo sapiens), sequence (Q02763 whole entry): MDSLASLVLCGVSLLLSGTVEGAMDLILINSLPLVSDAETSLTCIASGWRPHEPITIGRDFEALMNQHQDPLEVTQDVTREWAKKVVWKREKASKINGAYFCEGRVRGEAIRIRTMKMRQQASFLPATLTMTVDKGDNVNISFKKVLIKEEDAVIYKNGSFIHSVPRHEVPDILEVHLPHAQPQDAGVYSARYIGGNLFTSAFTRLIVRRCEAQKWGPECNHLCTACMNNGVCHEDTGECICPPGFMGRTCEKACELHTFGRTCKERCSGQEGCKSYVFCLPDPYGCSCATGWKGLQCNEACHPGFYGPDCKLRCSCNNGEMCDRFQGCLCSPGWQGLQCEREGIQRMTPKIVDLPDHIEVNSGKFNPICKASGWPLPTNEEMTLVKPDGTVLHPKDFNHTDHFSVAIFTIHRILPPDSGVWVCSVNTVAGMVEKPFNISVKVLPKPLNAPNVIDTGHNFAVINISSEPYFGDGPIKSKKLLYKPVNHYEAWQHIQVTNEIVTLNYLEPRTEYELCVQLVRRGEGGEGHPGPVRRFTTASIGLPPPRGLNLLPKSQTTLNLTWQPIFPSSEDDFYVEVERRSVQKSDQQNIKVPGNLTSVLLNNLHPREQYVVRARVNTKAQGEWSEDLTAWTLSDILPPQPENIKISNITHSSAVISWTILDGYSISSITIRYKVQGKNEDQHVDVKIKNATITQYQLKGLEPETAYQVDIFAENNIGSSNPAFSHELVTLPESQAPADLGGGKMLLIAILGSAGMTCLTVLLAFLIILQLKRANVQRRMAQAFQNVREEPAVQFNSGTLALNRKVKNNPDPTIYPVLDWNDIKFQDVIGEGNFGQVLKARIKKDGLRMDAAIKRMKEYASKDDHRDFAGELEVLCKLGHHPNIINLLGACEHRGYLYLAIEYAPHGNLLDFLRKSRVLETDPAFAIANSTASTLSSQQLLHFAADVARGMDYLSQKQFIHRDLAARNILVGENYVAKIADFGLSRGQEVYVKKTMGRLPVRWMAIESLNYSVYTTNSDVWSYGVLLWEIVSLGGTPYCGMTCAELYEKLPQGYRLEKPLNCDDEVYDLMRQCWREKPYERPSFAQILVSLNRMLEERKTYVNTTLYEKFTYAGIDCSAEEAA

[8] = target: Cannabinoid receptor 2 (Homo sapiens) (UniProt P34972)
Cannabinoid receptor 2 (Homo sapiens), sequence (P34972 whole entry): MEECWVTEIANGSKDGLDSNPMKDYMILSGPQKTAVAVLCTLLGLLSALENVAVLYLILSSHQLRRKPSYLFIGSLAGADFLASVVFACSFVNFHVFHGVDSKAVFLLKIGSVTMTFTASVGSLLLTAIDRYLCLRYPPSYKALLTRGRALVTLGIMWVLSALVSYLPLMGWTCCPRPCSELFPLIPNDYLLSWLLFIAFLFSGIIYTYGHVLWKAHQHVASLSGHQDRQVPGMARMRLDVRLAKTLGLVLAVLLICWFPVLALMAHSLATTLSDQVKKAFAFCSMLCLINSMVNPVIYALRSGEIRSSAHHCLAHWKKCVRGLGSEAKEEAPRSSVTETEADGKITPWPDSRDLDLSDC

[9] = target: T2, cGMP-dependent protein kinase 2 (Homo sapiens) (UniProt Q13237); test: PRKG2 (PKG2) Kinase screen; settings: Compound concentration 1.0 uM
T2 sequence (whole entry): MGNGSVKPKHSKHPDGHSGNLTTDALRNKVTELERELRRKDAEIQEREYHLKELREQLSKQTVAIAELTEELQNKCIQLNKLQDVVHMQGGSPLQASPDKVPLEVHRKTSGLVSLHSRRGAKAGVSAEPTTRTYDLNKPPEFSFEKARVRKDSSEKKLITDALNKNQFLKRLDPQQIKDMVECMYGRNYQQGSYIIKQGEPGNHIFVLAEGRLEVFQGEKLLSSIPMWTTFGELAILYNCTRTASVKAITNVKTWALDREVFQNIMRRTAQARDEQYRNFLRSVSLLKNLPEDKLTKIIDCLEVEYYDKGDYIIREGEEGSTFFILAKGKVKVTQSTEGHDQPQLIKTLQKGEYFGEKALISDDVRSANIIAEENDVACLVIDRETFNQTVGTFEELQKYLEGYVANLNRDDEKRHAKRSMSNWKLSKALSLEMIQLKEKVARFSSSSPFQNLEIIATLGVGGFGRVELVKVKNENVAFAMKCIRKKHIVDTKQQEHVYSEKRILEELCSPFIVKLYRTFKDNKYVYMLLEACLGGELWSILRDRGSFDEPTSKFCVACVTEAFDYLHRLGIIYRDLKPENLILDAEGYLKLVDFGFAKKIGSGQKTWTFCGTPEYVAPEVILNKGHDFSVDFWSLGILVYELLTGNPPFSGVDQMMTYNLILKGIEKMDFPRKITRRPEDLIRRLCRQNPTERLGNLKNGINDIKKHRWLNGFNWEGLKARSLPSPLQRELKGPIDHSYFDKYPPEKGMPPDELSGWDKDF

[10] = target: Tyrosine-protein kinase Fer (Homo sapiens) (UniProt P16591); test: FER Kinase screen; settings: Compound concentration 1.0 uM
[11] = target: Rho-associated protein kinase 1 (Homo sapiens) (UniProt Q13464); test: ROCK1 Kinase screen; settings: Compound concentration 1.0 uM
Rho-associated protein kinase 1 (Homo sapiens), sequence (Q13464 2-1354 limits assumed): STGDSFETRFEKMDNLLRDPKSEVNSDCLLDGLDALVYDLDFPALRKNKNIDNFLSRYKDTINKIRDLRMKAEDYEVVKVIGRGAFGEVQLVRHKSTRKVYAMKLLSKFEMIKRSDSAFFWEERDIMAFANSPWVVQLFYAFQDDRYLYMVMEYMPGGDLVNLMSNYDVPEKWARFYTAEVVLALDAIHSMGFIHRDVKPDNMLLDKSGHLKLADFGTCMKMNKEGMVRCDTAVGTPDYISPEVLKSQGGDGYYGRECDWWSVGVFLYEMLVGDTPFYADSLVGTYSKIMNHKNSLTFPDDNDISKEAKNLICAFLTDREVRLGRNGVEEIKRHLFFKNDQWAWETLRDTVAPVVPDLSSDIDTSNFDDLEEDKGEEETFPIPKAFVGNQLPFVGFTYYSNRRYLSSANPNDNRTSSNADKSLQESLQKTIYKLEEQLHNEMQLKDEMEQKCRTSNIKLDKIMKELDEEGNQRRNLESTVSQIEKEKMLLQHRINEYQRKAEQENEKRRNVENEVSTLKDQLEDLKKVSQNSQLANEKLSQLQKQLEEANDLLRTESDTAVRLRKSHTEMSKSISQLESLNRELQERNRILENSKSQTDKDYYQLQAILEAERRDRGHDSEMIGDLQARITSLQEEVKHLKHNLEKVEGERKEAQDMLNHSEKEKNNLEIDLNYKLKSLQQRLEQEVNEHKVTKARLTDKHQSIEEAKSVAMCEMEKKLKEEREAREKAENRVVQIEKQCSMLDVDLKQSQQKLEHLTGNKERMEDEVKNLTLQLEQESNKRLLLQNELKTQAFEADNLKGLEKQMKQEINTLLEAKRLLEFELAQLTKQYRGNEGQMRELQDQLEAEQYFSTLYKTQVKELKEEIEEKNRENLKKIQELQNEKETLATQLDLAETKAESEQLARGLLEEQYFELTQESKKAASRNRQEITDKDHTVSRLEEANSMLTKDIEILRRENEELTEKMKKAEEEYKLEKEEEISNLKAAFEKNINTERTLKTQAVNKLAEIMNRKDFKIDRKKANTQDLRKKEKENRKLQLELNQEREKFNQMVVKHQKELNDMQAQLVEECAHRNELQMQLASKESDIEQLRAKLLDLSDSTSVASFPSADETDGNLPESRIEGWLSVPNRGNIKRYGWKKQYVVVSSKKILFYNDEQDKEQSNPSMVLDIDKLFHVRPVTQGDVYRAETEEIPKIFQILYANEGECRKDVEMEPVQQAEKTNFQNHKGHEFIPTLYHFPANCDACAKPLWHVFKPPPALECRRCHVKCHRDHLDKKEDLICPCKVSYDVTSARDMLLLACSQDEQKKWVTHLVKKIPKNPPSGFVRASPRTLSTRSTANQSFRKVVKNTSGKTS

[12] = target: Mitogen-activated protein kinase 3 (Homo sapiens) (UniProt P27361); test: MAPK3 (ERK1) Kinase screen; settings: Compound concentration 1.0 uM
Homo sapiens = species on record: Homo sapiens; test: Glutamate, Metabotropic, mGlu5 Eurofins-Panlabs radioligand binding assay; settings: Compound concentration 10.0 uM
[13] = target: Wee1-like protein kinase (Homo sapiens) (UniProt P30291); test: WEE1 Kinase screen; settings: Compound concentration 1.0 uM
[14] = test system: Epidermal growth factor receptor (Homo sapiens), P00533 [T790M]; test: EGFR (ErbB1) T790M Kinase screen; settings: Compound concentration 1.0 uM
[15] = test system: Leucine-rich repeat serine/threonine-protein kinase 2 (Homo sapiens), Q5S007 [G2019S]; settings: Compound concentration 1000.0 nM
[16] = target: Alpha-1B adrenergic receptor (Homo sapiens) (UniProt P35368); settings: Compound concentration 10.0 uM

Protein kinase C eta type (Homo sapiens), sequence (P24723 whole entry, canonical isoform): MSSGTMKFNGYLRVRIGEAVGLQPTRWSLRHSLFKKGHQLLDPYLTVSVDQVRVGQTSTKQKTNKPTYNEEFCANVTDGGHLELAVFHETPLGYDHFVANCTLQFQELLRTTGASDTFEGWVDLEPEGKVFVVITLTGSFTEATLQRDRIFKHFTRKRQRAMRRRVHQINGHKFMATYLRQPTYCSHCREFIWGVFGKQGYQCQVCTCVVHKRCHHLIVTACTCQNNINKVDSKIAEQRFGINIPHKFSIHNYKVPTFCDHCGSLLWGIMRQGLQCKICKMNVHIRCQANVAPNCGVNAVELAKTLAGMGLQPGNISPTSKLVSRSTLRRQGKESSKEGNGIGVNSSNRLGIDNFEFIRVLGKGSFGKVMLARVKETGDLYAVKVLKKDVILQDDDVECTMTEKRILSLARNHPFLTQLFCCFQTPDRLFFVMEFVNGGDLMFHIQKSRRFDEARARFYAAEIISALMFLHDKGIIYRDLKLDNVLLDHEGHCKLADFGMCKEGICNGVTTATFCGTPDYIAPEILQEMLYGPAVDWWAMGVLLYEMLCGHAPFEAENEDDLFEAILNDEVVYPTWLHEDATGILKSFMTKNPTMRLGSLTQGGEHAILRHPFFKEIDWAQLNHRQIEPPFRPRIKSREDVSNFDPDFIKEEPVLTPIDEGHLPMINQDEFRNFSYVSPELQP

C[C@@H]1CN(c2cc(-c3n[nH]c4ccc(OC5(C)CC5)cc34)ncn2)C[C@H](C)O1 [MLi-2]
inhibition [1]: 6.4%
inhibition [2]: -1.82%
inhibition [3]: 4.76%
inhibition [4]: 3.43%
inhibition (Caspase-9 (Homo sapiens)): 5%
inhibition ([5]; Compound concentration 0.01 uM): -7%
inhibition ([5]; Compound concentration 0.1 uM): 8%
inhibition ([5]; Compound concentration 1.0 uM): 44%
inhibition ([5]; Compound concentration 10.0 uM): 95%
inhibition [6]: 10.4%
inhibition [7]: 2.36%
inhibition ([8]; Compound concentration 3.0 uM): 2%
inhibition ([8]; Compound concentration 10.0 uM): 2%
inhibition [9]: 1.23%
inhibition [10]: 26.7%
inhibition [11]: -0.899%
inhibition [12]: 18.7%
inhibition (Homo sapiens): 0%
inhibition [13]: 3%
inhibition [14]: 3.93%

C[C@@H]1CN(c2cc(-c3nn(C)c4ccc(OC5(C)CC5)cc34)ncn2)C[C@H](C)O1 [MLi-2-NC]
residual activity [15]: 36%
inhibition [16]: 3.72%
